Data from US9469645B2, “Compounds and compositions for the treatment of parasitic diseases” (Novartis AG, priority 2009, dated 2016).
Where two headings read alike, the source gives them in different places.

Columns and labels:
[1] = tested on: 3D7 P. falciparum strain; assay: parasite proliferation assay in infected red blood cells (SYBR Green I); assay type: cell-based, Plasmodium falciparum; conditions: 3D7 strain, read-out: EC50 3D7 strain
Outline: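 P. falciparum 3D7 grown in O+ human erythrocytes to 3–8% parasitemia and exposed to compounds. Proliferation read as the increase in parasite DNA. Detection used SYBR Green I in saponin/triton-X/EDTA lysis buffer, with overnight lysis at room temperature.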

[2] = tested on: W2 strain; assay: parasite proliferation assay in infected red blood cells (SYBR Green I), W2 strain; assay type: cell-based
From the text: Compounds of the invention can be assayed to measure their capacity to inhibit proliferation of parasitemia in infected red blood cells. The proliferation is quantified by the addition of SYBR Green I (INVITROGEN)® dye which has a high affinity for double stranded DNA.

[3] = Plasmodium falciparum, 3D7, Erythrocyte
[4] = Plasmodium falciparum, Erythrocyte

Row | Structure (SMILES) | EC50 [1, 3] [nM] | EC50 ([2]; Erythrocyte) [nM] | EC50 [1] [nM] | EC50 [2] [nM] | EC50 [2, 4] [nM]
1 | CC(C)(N)C(=O)N1CCn2c(nc(-c3ccc(F)cc3)c2NC2CCCCC2)C1 [Compound 27] | 9610 | 5980 | – | – | –
2 | Cc1ccc(Nc2c(-c3ccc(F)cc3)nc3n2CCN(C(=O)[C@@H](O)CCc2ccccc2)C3)cc1 [Compound 118] | 150 | 135 | – | – | –
3 | NCC(=O)N1CCn2c(nc(-c3ccc(F)cc3)c2Nc2ccc(F)c(F)c2)C1 [Compound 30] | 30 | 23 | – | – | –
4 | Cc1ccc(Nc2c(-c3ccc(F)c(F)c3)nc3n2CCNC3)cc1 [Compound 278] | 210 | 269 | – | – | –
5 | Cc1ccc(Nc2c(-c3ccc(F)cc3)nc3n2CCN(C(=O)C(N)CC(F)(F)F)C3)cc1 (stereo not shown) [Compound 142] | 80 | 120 | – | – | –
6 | N#Cc1ccc(Nc2c(-c3ccc(F)cc3)nc3n2CCNC3)cc1 [Compound 249] | 5390 | 5060 | – | – | –
7 | Cc1ccc(Nc2c(-c3ccc(F)cc3)nc3n2CCN(C(=O)C2CCNC2)C3)cc1 (stereo not shown) [Compound 96] | – | – | 580 | 321 | –
8 | CC(C)(C)OC(=O)N[C@@H](Cc1ccc(N)cc1)C(=O)N1CCn2c(nc(-c3cccc(F)c3)c2Nc2ccc(Cl)c(F)c2)C1 [Compound 242] | 2090 | 288 | – | – | –
9 | Cc1ccc(Nc2c(-c3ccc(F)cc3)nc3n2CCN(C(=O)Cc2cc(Cl)cc(Cl)c2)C3)cc1 [Compound 230] | 320 | 255 | – | – | –
10 | CC1(C)c2nc(-c3ccc(F)cc3)c(Oc3ccc(F)cc3)n2CCN1C(=O)CN [Compound 709, 2-amino-1-(3-(4-fluorophenoxy)-2-(4-fluorophenyl)-8,8-dimethyl-5,6-dihydroimidazo[1,2-a]pyrazin-7(8H)-yl)ethanone] | 3 | – | – | – | 8
11 | Cc1ccc(Nc2c(-c3ccc(F)cc3)nc3n2CCN(C(=O)CC(C)(O)C(F)(F)F)C3)cc1 (stereo not shown) [Compound 120] | 110 | 123 | – | – | –
12 | Cc1cc(Nc2c(-c3ccc(F)cc3)nc3n2CCN(C(=O)CN)C3(C)C)nn1C [Compound 600] | 70 | – | – | – | 50
13 | CCCCCNC(=O)C[C@H](N)C(=O)N1CCn2c(nc(-c3cccc(F)c3)c2Nc2ccc(F)cc2)C1 [Compound 257] | 6680 | 7000 | – | – | –
14 | Cc1ccc(Nc2c(-c3ccc(F)cc3)nc3n2CCN(C(=O)C2CCCNC2)C3)cc1 (stereo not shown) [Compound 86] | – | – | 710 | 755 | –
15 | C[C@H](N)C(=O)N1CCn2c(nc(-c3ccc(F)cc3)c2Nc2ccc(F)cc2)C1 [Compound 17] | 90 | 64 | – | – | –
16 | CC1(C)c2nc(-c3ccc(F)cc3)c(Cc3ccc(F)c(F)c3)n2CCN1C(=O)CN [Compound 696] | 20 | – | – | – | 22
17 | CCc1ccc(Nc2c(-c3ccc(F)cc3)nc3n2CCN(C(=O)CN)C3(C)C)cc1 [Compound 648] | 9 | – | – | – | 8
18 | Cc1ccc(Nc2c(-c3ccc(F)cc3)nc3n2CCN(C(=O)C2(O)CCCCC2)C3)cc1 [Compound 117] | 1260 | 1190 | – | – | –
19 | Cc1ccc(Nc2c(-c3ccc(F)c(F)c3)nc3n2CCN(C(=O)[C@@H](N)C(C)C)C3)cc1 [Compound 396] | 30 | 22 | – | – | –
20 | CC1(C)c2nc(-c3ccc(F)cc3)c(N[C@@H]3C[C@H]4CC[C@@H]3C4)n2CCN1C(=O)CN [Compound 667] | 104 | – | – | – | 82
21 | O=C([C@H]1CCCO1)N1CCn2c(nc(-c3ccc(F)cc3)c2Nc2ccc(Cl)c(F)c2)C1 [Compound 356] | 1260 | 872 | – | – | –
22 | CCn1nccc1Nc1c(-c2ccc(F)cc2)nc2n1CCN(C(=O)CN)C2(C)C [Compound 601] | 3960 | – | – | – | 4120
23 | CCCC(=O)N[C@H](C(=O)N1CCn2c(nc(-c3ccc(F)cc3)c2Nc2ccc(C)cc2)C1)c1ccccc1 [Compound 291] | 1200 | 567 | – | – | –
24 | Cc1ccc(Nc2c(-c3ccc(F)cc3)nc3n2CCN(C(=O)[C@H](CCC(=O)OCc2ccccc2)NC(=O)OC(C)(C)C)C3)cc1 [Compound 150] | 960 | 673 | – | – | –
25 | NCC(=O)N1CCn2c(nc(-c3cccc(F)c3)c2Nc2ccc(Cl)c(F)c2)C1 [Compound 228] | 10 | 8 | – | – | –

Row | Structure (SMILES) | EC50 [1, 3] [nM] | EC50 ([2]; Erythrocyte) [nM] | EC50 [1] [nM] | EC50 [2] [nM] | EC50 [2, 4] [nM]
26 | Cc1ccc(Nc2c(-c3ccc(F)cc3)nc3n2CCN(C(=O)[C@H](C)N)C3)cc1 [Compound 83] | 80 | 131 | – | – | –
27 | CN(C)C1CCN(c2c(-c3ccc(F)cc3)nc3n2CCN(C(=O)CN)C3(C)C)C1 (stereo not shown) [Compound 668] | 3430 | – | – | – | > 10000
28 | CC1(C)c2nc(-c3ccc(F)cc3)c(-c3ccc(F)c(Cl)c3)n2CCN1C(=O)CN [Compound 706] | 252 | – | – | – | 237
29 | Cc1ccc(CC(N)C(=O)N2CCn3cc(-c4ccc(F)cc4)nc3C2(C)C)cc1 (stereo not shown) [Compound 700, 2-amino-1-(2-(4-fluorophenyl)-8,8-dimethyl-5,6-dihydroimidazo[1,2-a]pyrazin-7(8H)-yl)-3-p-tolylpropan-1-one] | > 9510 | – | – | – | 7000
30 | Cc1ccc(N2Cc3nc(-c4ccc(F)cc4)c(N)n3CC2=O)cc1 [Compound 299] | > 8740 | 9400 | – | – | –
31 | Cc1ccc(Nc2c(-c3ccc(F)cc3F)nc3n2CCN(C(=O)CN)C3)cc1 [Compound 387] | 110 | 80 | – | – | –
32 | Cc1ccc(Nc2c(-c3ccc(F)cc3F)nc3n2CCN(C(=O)C(C)(C)N)C3)cc1 [Compound 395] | 440 | 246 | – | – | –
33 | CCC(=O)N[C@H](C(=O)N1CCn2c(nc(-c3ccc(F)cc3)c2Nc2ccc(C)cc2)C1)c1ccccc1 [Compound 290] | 440 | 397 | – | – | –
34 | Cc1ccc(Nc2c(-c3ccc(F)cc3)nc3n2C(C)(C)CN(C)C3)cc1C#N [Compound 612] | 6900 | – | – | – | 6080
35 | Cc1ccc(Nc2c(-c3ccc(F)cc3)nc3n2CC(=O)NC3(C)C)cc1F [Compound 598] | 40 | – | – | – | 74
36 | CN1CCOC(C(=O)N2CCn3c(nc(-c4ccc(F)cc4)c3Nc3ccc(Cl)c(F)c3)C2)C1 (stereo not shown) [Compound 372] | 690 | 554 | – | – | –
37 | O=C(CCc1ccccc1F)N1CCn2c(nc(-c3ccc(F)cc3)c2Nc2ccc(Cl)c(F)c2)C1 [Compound 359] | 140 | 108 | – | – | –
38 | Cc1ccc(Nc2c(-c3ccc(F)cc3)nc3n2CCN(Cc2ccc(S(C)(=O)=O)cc2)C3)cc1 [Compound 179] | 4790 | 1070 | – | – | –
39 | Cc1ccc(Nc2c(-c3ccc(F)cc3)nc3n2CCN(C(=O)CC2CCCO2)C3)cc1 (stereo not shown) [Compound 211] | 300 | 283 | – | – | –
40 | Fc1ccc(-c2nc3n(c2Nc2ccc(Cl)c(F)c2)CCNC3)cc1 [Compound 192] | 110 | 95 | – | – | –
41 | Cc1ccc(Nc2c(-c3ccc(F)cc3)nc3n2CCN(C(=O)[C@@H](N)Cc2ccc(CN)cc2)C3)cc1 [Compound 213] | 3800 | 4820 | – | – | –
42 | NCC(=O)N1CCn2c(nc(-c3ccc(Br)cc3)c2Nc2ccc(F)cc2)C1 [Compound 54] | 1290 | 764 | – | – | –
43 | CC1(C)c2nc(-c3ccc(F)cc3)c(C(=O)Nc3ccc(F)cc3)n2CCN1C(=O)CN [Compound 708] | 809 | – | – | – | 1130
44 | CC1(C)c2nc(-c3ccc(F)cc3)c(Nc3ccc(F)cc3)n2CCN1C(=O)CNCCCNC(=O)CCc1ccccc1 [Compound 730, N-(3-(2-(2-(4-fluorophenyl)-3-(4-fluorophenylamino)-8,8-dimethyl-5,6-dihydroimidazo[1,2-a]pyrazin-7 (8H)-yl)-2-oxoethylamino)propyl)-3-phenylpropanamide] | 1360 | – | – | – | 474
45 | Cc1ccc(Nc2c(-c3ccc(F)cc3)nc3n2CCN(C(=O)CNC(N)=O)C3)cc1 [Compound 166] | 2870 | 2230 | – | – | –
46 | CC1(C)c2nc(-c3ccc(F)cc3)c(-c3ccc(F)cc3)n2CCN1C(=O)CN [Compound 705] | 1240 | – | – | – | 760
47 | Cc1ccc(Nc2c(-c3ccc(F)cc3)nc3n2CCN(C(=O)C(C)(N)C(F)(F)F)C3)cc1 (stereo not shown) [Compound 366] | 3470 | 1820 | – | – | –
48 | CCC(C)CNc1c(-c2ccc(F)cc2)nc2n1CCN(C(=O)CN)C2(C)C (stereo not shown) [Compound 674] | 6280 | – | – | – | 6310
49 | Cc1ccc(Nc2c(-c3ccc(F)cc3)nc3n2CCN(C(=O)C(C)Nc2c(C)cccc2C)C3)cc1 (stereo not shown) [Compound 380] | 1130 | 1790 | – | – | –
50 | Cc1ccc(Nc2c(-c3ccc(F)cc3)nc3n2CCN(C(=O)CN(CCO)CCO)C3)cc1 [Compound 161] | 540 | 510 | – | – | –
